Measurements reported in ChEMBL document CHEMBL1157539, “Thousands of chemical starting points for antimalarial lead identification” (Nature, 2010).
Values joined by “and” are separate entries in the source; they are usually repeats but may differ in a detail not shown here. Equal entries are not always repeated.

tested on: Plasmodium falciparum; assay: GSK_TCMDC: Inhibition of Plasmodium falciparum 3D7 in whole erythrocytes, using parasite LDH activity as an index of growth.; type: functional, organism-based; settings: not given

SMILES	XC50
CSc1nccc(-c2ccc(S(=O)(=O)NC3CCC(CN4CCC(c5c[nH]c6ccccc56)CC4)CC3)s2)n1 (stereo not drawn)	811 nM and 254 nM
O=C(C=Cc1ccc(-c2ccccc2)cc1)NC1CCC(CN2CCC(c3c[nH]c4ccccc34)CC2)CC1 (stereo not drawn)	807 nM

same assay, conditions: Plasmodium falciparum, 3D7

SMILES	XC50 [nM]
CCc1cn2c3c(cc(C(=O)N[C@@H](Cc4ccccc4)[C@H](O)CNC(C)(C)c4cccc(OC)c4)cc13)N(C)S(=O)(=O)C2	61.7
CS(=O)(=O)Nc1ccc2[nH]cc(C3CCN(CCCCCNC(=O)/C=C/c4ccc(Cl)c(Cl)c4)CC3)c2c1	736
CC1CN(c2cc(=O)n(Cc3ccc(NC(=O)Nc4ccc(-c5ccccc5)cc4)cc3)cn2)CC(C)N1 (stereo not drawn)	974
COc1cc2nc(Nc3ccc(N4CCOCC4)cc3)nc(N)c2cc1OC	871
COCCNCc1ccc(-c2cccc(CN(C(=O)NCCc3ccccc3)C3CCN(Cc4ccccc4)CC3)c2)cc1	918
Cc1ccc(OCCCON2C(=N)N=C(N)NC2(C)C)cc1C	3.2
COc1ccc(Nc2nc(NCc3cccc(NS(C)(=O)=O)c3)cc(-c3ccc(OC)cc3)n2)cc1	1220
CCN1CCN(c2cc(C)c3cc(NC(=O)c4cccc(Cl)c4)ccc3n2)CC1	775
CN(C)c1ccc(CN2CCC(NC(=O)c3ccc(-c4ccc(N(C)C)cc4)s3)CC2)cc1	1070
COc1ccc(C=NN=c2cc(C)[nH]c3c(C)cccc23)c2ccccc12	224
SC(=Nc1ccc2c(c1)OCCO2)NN=Cc1ccccn1	1050
O=C(Nc1ccc(C(F)(F)F)cc1)c1cccc(S(=O)(=O)NC2CCN(CC3CCCCC3)CC2)c1	848
CC1CCCN1Cc1ccc(-c2ccc3c(=O)cc(CCc4cccc(F)c4F)n(CC(=O)N(C)Cc4ccc(-c5ccc(C(F)(F)F)cc5)cc4)c3n2)cc1 (stereo not drawn)	823
CC(=O)Nc1cc(C(=O)Nc2cccc(-c3cccc(-c4nc5cc(C(F)(F)F)ccc5[nH]4)c3)c2)ccc1C	215
Cc1ccc2[nH]c(C)c(Br)c(=O)c2c1	812
Cc1ccc(-n2cc(CNCCCn3ccnc3)c(-c3cccc(C)c3)n2)cc1	773
CCCc1cnc2nc(N)nc(N)c2c1C	1120
O=C(c1ccccc1)C1CC1CN1CC=C(c2c[nH]c3ccccc23)CC1 (stereo not drawn)	525
Cc1cccc2nc(-c3ccc(-c4cccc(NC(=O)CN5CCN(C)CC5)c4)s3)[nH]c12	826
CC(=O)Nc1ccc(C(=O)Nc2cccc(-c3cccc(-c4nc5cc(F)ccc5[nH]4)c3)c2)cn1	134
O=C(c1cc(C(=O)NCc2ccc(Cl)cc2)c(=O)n(Cc2ccc(Cl)cc2)c1)c1cc(Cl)ccc1O	1400
CC[C@H]1CN2CC[C@@H]1C[C@H]2[C@H](O)c1cc[n+]([O-])c2ccc(OC)cc12	748
O=C(Nc1ccc(Cl)cc1)N1CCN(C2CCCCC2)CC1	986
COc1ccc(OCCON)cc1	201

SMILES	XC50 [nM]
CC[C@H]1CN2CC[C@H]1C[C@H]2[C@H](O)c1ccnc2ccc(C#N)cc12	147
COc1cc(-c2nc(C(C)(C)CN)[nH]c2-c2ccncc2)ccc1Br	769
Cc1ccccc1OCC(=O)Nc1ccc(-c2nc3cc4ccccc4cc3[nH]2)cc1	753
CN(C(=O)Nc1ccc(F)cc1)C1CCN(CCCCCNC(=O)/C=C/c2ccc(Cl)c(Cl)c2)CC1	886
CNc1cc(-c2ccc3ccnc(N)c3c2)nc(N)n1	119
COc1cc2nc(Nc3ccc4c(c3)OCCO4)nc(N)c2cc1OC	469
Cc1cccc2nc(-c3cccc(-c4cccc(NC(=O)c5c[nH]cn5)c4)c3)[nH]c12	258
CCc1nnc2sc(-c3cccc(NC(=O)c4ccc(C)c([N+](=O)[O-])c4)c3)nn12	1410
COc1ccc2c(NN=Cc3cccnc3)ccnc2c1	684
COc1ccc(C=NNc2ccnc3cc(F)c(C)cc23)c2ccccc12	771
Cc1ccc(CNC(=O)[C@H](CCCN)Nc2cc(C)nc(Nc3ccccc3)n2)cc1	1290
CC(C)C(=O)n1ncc2c3c(N)nc(N)nc3ccc21	1030
O=C(/C=C/c1ccc(Cl)c(Cl)c1)NCCCCCN1CCN(C(=O)Nc2ccc(OC(F)F)cc2)CC1	945
Oc1ccc(CCNCCCCCCNCCc2ccc(Cl)c(Cl)c2)cc1O	726
COc1ccc(CNCc2ccc(F)cc2)cc1-c1ccc(OC)c(S(=O)(=O)NCCN2CCCC2)c1	786
COc1cc(C=NNc2cc(C)nc3c(OC)cccc23)cc(OC)c1OC	887
C[C@H](NC(=O)c1c(CN2CCN(C(=O)C(C)(C)C)CC2)c(-c2cccs2)nc2ccccc12)C1CCCCC1	1180
OC(CNCc1ccccc1OCc1ccccc1)c1cccc(I)c1 (stereo not drawn)	418
COc1ccc(CCNc2nc(NCCc3cnc[nH]3)nc(NCc3cccc4ccccc34)n2)cc1OC	537
Cc1cc(NCc2ccc(F)cc2)nc2cc(O)ccc12	762
O=C(c1ccco1)N1CCN(c2nc(-c3ccc(Cl)cc3)nc3ccccc23)CC1	934
O=C(c1cncc(-c2ccccc2)c1)N(Cc1cncn1Cc1ccccc1F)CC1CC1	804
COc1ccc(-c2ccc(NC(=O)c3ccc(Cl)cc3)cc2)cc1CN(C)CCO	813
CN(C)[C@@H]1C(O)=C(C(N)=O)C(=O)[C@@]2(O)C(O)=C3C(=O)c4c(O)ccc(C#Cc5ccccn5)c4C[C@H]3C[C@@H]12	760

SMILES	XC50 [nM]
COc1cccc(CNC(=O)c2ccnc(-c3cccc(CN(C)C4CCN(C)CC4)c3)c2)c1	834
CCC(C)NC(=O)CN1CN(c2ccccc2)C2(CCN(C(=O)c3ccc(-c4ccccc4)cc3)CC2)C1=O (stereo not drawn)	128
Cc1[nH]c2ccccc2c1C(=O)CSc1nn(-c2ccccc2)c(=S)s1	699
COc1ccccc1CCNc1nc(C)cc(NCCC(=O)Nc2ccccc2)n1	806
Cn1nccc1C(=O)NCCNCc1cccc(-c2cccc(-c3nc4cc(C(F)(F)F)ccc4[nH]3)c2)c1	172
CC(C)CN1CCC(COc2ccc3ncn(-c4cc(O[C@H](C)c5ccccc5C(F)(F)F)c(C(N)=O)s4)c3c2)CC1	618
O=C(/C=C/c1ccc(Cl)c(Cl)c1)N1CCC(CN2CCC(c3cn(CC(=O)N4CCCCC4)c4ccccc34)CC2)CC1	750
CC1(C)NC(N)=NC(=N)N1OCCCOc1cc(Cl)cc(Cl)c1	3.2
CC(C)CCn1c(Sc2ccc(C#N)c([N+](=O)[O-])c2)nnc1-c1cccc(Cl)c1	673
Cc1nc(-c2ccc(-c3ccc(C(=O)Nc4ccc5c(c4)C4(CCNCC4)CO5)cc3)c(C)c2)no1	858
Cn1nc(-c2ccc(NC(=O)Nc3cc(C(F)(F)F)ccc3F)c(F)c2)c2cnc(NCCCn3ccnc3)nc21	736
Cc1cccc2nc(-c3cccc(-c4ccc(CN5CCN(CCO)CC5)cc4)c3)[nH]c12	823
CC(C)(C)c1ccc(Cn2c(=N)n(CC(=O)c3ccc(-c4ccccc4)cc3)c3ccccc32)cc1	158
COCCOc1ccc(C(F)(F)F)cc1NC(=O)Cc1c(F)cccc1Cl	1000
COc1cccc(-c2nn(C)c3sc(C(=O)NCCN(C)Cc4ccccc4)cc23)c1	814
CC(C)CC1c2[nH]c3ccccc3c(=O)c2CN1C(=O)OC(C)(C)C (stereo not drawn)	221
Cc1ccc(Cn2cnc3cc(C(=O)Nc4ccc(-c5ccc(CN(C)C)cc5)cc4)ccc3c2=O)o1	1260
Cc1ccc(Cc2c(N)nc3nc(N)nc(N)c3c2C)cc1	188
Cc1ccc2nc(C)cc(N/N=C/c3ccc([N+](=O)[O-])cc3)c2c1	793
Cc1cccc2nc(-c3ccc(-c4ccc(CN5CCN(c6cnccn6)CC5)cc4)s3)[nH]c12	750
Cc1cc(C(=O)Nc2ccc3c(c2)CCN3C2CCN(Cc3ccc(F)cc3Cl)C2)no1 (stereo not drawn)	189
CC(C)c1cccc(C(NC(=O)[C@H]2Cc3ccccc3CN2C(=O)c2cccc(N3CCOCC3)c2)C2CCCC2)c1 (stereo partly drawn)	723
Cc1nnc2c(NC(=O)NC3CCCC3)cc3ccc(-c4cccc(CN5CCN(C)CC5)c4)cc3n12	917
CCc1ccc(NC(=O)c2cccc(CN3CCCN(CC4CCCCC4)CC3)c2)cc1	952

SMILES	XC50 [nM]
Cc1cc(N2CC=CCC2)nc(NC(=N)Nc2ccc(Cl)cc2)n1	782
O=C(Nc1ccc2c(c1)CCC2)N[C@H]1CCN(Cc2ccc(OCCCN3CCCCC3)cc2)C1	864
C=CC[C@H](C[C@H](O)[C@H](Cc1ccccc1)NC(=O)c1ccc(-n2cccn2)cc1)C(=O)NC1CCCCC1	810
CCOc1ccc(OCC(=O)Nc2nc(-c3ccc(OC)cc3)c(C)s2)cc1	220
Cn1cnc2c(SCc3ccccc3OCc3ccccc3)ncnc21	922
CCC(NC(=O)c1ccccc1NC(=O)c1ccc(C)cc1)C(=O)OC (stereo not drawn)	762
CCOC(=O)C1=C(C)NC(C)=C(C(=O)OCC)C1(C(=O)OCc1ccccc1)c1cccc(C(F)(F)F)c1	1230
COc1ccc(Cl)cc1NC(=O)CN(C)C(=O)c1cnn(-c2ccccc2)n1	228
COc1ccc2nc(-c3ccccc3)cc(NCCN(C)C)c2c1	731
C=CCn1c(Cc2ccccc2)nnc1Sc1ccc(C#N)c([N+](=O)[O-])c1	1030
CC(C)CCNC(=O)C1Cc2c([nH]c3ccc(Br)cc23)C2(CCN(Cc3ccccc3)CC2)N1 (stereo not drawn)	817
C=CCOC(=O)N1CCC(CNCc2ccc(-c3cccc(-c4nc5cc(F)ccc5[nH]4)c3)cc2)C1 (stereo not drawn)	140
CC(=O)Nc1nc(C(=O)Nc2cccc(-c3cccc(-c4nc5ccccc5[nH]4)c3)c2)cs1	172
O=C(C=Cc1ccc(-c2ccccc2)cc1)NC1CCC(CN2CCC(c3c[nH]c4ccccc34)CC2)CC1 (stereo not drawn)	738
O=C(/C=C/c1ccc(Cl)c(Cl)c1)N1CCC(CN2CCC(c3c[nH]c4ccc(O)cc34)CC2)CC1	776
CC(CN)OCn1cnc2c(N)ncnc21 (stereo not drawn)	231
CS(=O)(=O)Cc1ccc(Nc2ncc(Cl)c(Nc3cccnc3C(N)=O)n2)cc1	868
OC(CNC1CCCCC1)Cn1c2ccc(I)cc2c2cc(I)ccc21 (stereo not drawn)	337
COc1cc(Cc2cnc(N)nc2N)cc(OC)c1OC [TRIMETHOPRIM]	755
COc1c(C2CCN(CCCCNC(=O)c3ccc(-c4ccc(Cl)cc4)cn3)CC2)ccc2c1CCCC2	912
N#Cc1ccc(N(CCOc2ccc(Cl)c(F)c2)Cc2ccccc2C(F)(F)F)cc1C(F)(F)F	685
CCc1cc(Br)c2c(c1)C(NCCCNc1cc(=O)c3ccccc3[nH]1)CCN2 (stereo not drawn)	852
CS(=O)(=O)N(CC(O)Cn1c2ccc(Cl)cc2c2cc(Cl)ccc21)c1ccccc1 (stereo not drawn)	897
CCCC(C)NC(=O)[C@H](CC1CCCCC1)NC(=O)c1ccc(O)c(-c2cccc(C(F)(F)F)c2)c1 (stereo partly drawn)	534
